The results in this text go back to patent US10251891B2, “Aprepitant oral liquid formulations” (InnoPharma, Inc., priority 2014, dated 2019).

This data set is described as follows: Solubility of aprepitant in water. It counts as physicochemical. The text has this:
Moreover, it should be recognized that the particle size of the active pharmaceutical ingredient may have important effects on the bioavailability of a formulation. Smaller particle sizes often have increased surface area and will thus dissolve faster than larger particles. However, decreasing the particle size will often increase agglomeration of the particles, and an increased surface area of smaller particles can result in faster degradation of the compound, e.g., due to oxidation and/or hydrolysis. The inventors have now found out that a fine particle size, and especially an average particle size between 0.250 and 0.400 micron, could achieve a desirable bioavailability (typically identical to that of commercially available solid oral aprepitant, EMEND). Such particle size may preferably be achieved using air-jet milling, ball milling, or mortar milling.

`C[C@@H](O[C@H]1OCCN(Cc2n[nH]c(=O)[nH]2)[C@H]1c1ccc(F)cc1)c1cc(C(F)(F)F)cc(C(F)(F)F)c1` [Aprepitant, 5-([(2R,3S)-2-((R)-1-[3,5-bis(trifluoromethyl)phenyl]ethoxy)-3-(4-fluoro-phenyl)morpholino]methyl)-1H-1,2,4-triazol-3(2H)-one]: the solubility in water entry is reported as “practically insoluble in water”.
